What all share (test): yeast liquid growth assay
Holding throughout (assay type): cell-based

The target in one assay is T1, wild type hA1AR (Homo sapiens, UniProt P30542).
T1 sequence (P30542 1-326): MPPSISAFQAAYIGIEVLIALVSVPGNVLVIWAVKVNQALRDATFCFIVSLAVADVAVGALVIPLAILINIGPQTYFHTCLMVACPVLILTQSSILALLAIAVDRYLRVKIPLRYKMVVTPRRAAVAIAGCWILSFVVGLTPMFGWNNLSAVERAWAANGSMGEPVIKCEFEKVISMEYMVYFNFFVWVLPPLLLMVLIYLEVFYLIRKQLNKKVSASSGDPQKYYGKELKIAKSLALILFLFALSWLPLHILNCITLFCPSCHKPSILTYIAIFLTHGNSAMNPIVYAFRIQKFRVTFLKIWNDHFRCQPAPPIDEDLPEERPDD
The following applies: ratio over basal activity of wild type hA1AR, 7 mM 3-AT. As to the method:
(§1) The plasmids, pDT-PGK_hA1AR, containing either wild type or mutated hA1AR were transformed into a MMY24 S. cerevisiae strain following the lithium acetate procedure.
(§2) In order to characterize the mutant hA1ARs, liquid growth assays in 96-well plates were performed to obtain concentration–growth curves as previously described. […] The overnight cultures were then diluted to 40,000 cells/mL (OD600 ≈ 0.02) in a selective medium without uracil, leucine, and histidine (YNB-ULH). For the determination of constitutive activity, 50 μL of yeast cells and 150 μL of YNB-ULH medium containing different concentrations of 3-AT and 0.8 IU/mL ADA were then added to each well. To obtain concentration–growth curves, 2 μL of various concentrations of ligands, 50 μL of yeast cells, and 150 μL of YNB-ULH medium containing 7 mM 3-AT and 0.8 IU/mL ADA were then added to each well. After incubation at 30 °C for 35 h in a Genios plate reader (TECAN, Zürich, Switzerland) with shaking for 1 min at 300 rpm every 10 min, the optical density was measured at a wavelength of 595 nm, which represented the level of yeast cell growth.
(§3) All experimental data were analyzed by GraphPad Prism 7.0 or 8.0 (GraphPad Software Inc., San Diego, CA, USA). Data from yeast liquid growth and [^35S]GTPγS binding assays were analyzed by non-linear regression using “log (agonist) vs. response (three parameters)” or “log (inhibitor) vs. response (three parameters)” to obtain potency (EC50), inhibitory potency (IC50), and efficacy (Emax or Imax) values. The radioligand displacement curves were obtained from a statistically preferred one-site or two-site binding model. pKi values were calculated from pIC50 values using the Cheng–Prusoff equation, where KD values were obtained from the homologous competition assays from this study and calculated by non-linear regression using “one site–homologous” [62].

A further assay deals with T2, hA1AR D55G^2.50 (Homo sapiens, UniProt P30542, D55G).
T2 construct: expressed in transfected cells; host or cells: S. cerevisiae MMY24
T2 sequence (P30542 1-326 D55G): T1 sequence (P30542 1-326) with D55G
As to conditions: result in words. As to the method:
as §1, §2, §3

Another assay concerns the target T3, hA1AR R122Q^4.40 (Homo sapiens, UniProt P30542, R122Q).
T3 construct: expressed in transfected cells; host or cells: S. cerevisiae MMY24
T3 sequence (P30542 1-326 R122Q): T1 sequence (P30542 1-326) with R122Q
The following applies: ratio over basal activity of wild type hA1AR, 7 mM 3-AT. As to the method: as §1, §2, §3

The target in another assay is T4, hA1AR L134F^4.52 (Homo sapiens, UniProt P30542, L134F).
T4 sequence (P30542 1-326 L134F): T1 sequence (P30542 1-326) with L134F
The following applies: result in words. The protocol: as §1, §2, §3

The next assay has as its target T5, hA1AR A20T^1.43 (Homo sapiens, UniProt P30542, A20T).
T5 construct: expressed in transfected cells; host or cells: S. cerevisiae MMY24
T5 sequence (P30542 1-326 A20T): T1 sequence (P30542 1-326) with A20T
As to conditions: ratio over basal activity of wild type hA1AR, 7 mM 3-AT. The protocol:
as §1, §2, §3

Where a chain is given by its changes, count along the chain named.

For the molecule `OC[C@H]1O[C@@H](n2cnc3c(NC4CCCC4)ncnc32)[C@H](O)[C@@H]1O` [CPA, N^6-cyclopentyladenosine], the figures for the Emax at wild type hA1AR, on hA1AR R122Q^4.40 and at hA1AR A20T^1.43 were 4.83 ± 0.30, 4.67 ± 0.22 and 4.23 ± 0.60, respectively. Further, the agonist-induced receptor activation entry on hA1AR D55G^2.50 and at hA1AR L134F^4.52 was “could not be activated” each time.

These data come from article PMC9229843, “Cancer-Related Somatic Mutations in Transmembrane Helices Alter Adenosine A1 Receptor Pharmacology” (Molecules, 2022).
